# From US12012411B2, “Viral replication inhibitors” (Katholieke Universiteit Leuven, priority 2011, dated 2024)
# System: not listed separately
# Test: in vitro
# Conditions: African green monkey, uninfected quiescent Vero-B cells
row,Structure (SMILES),CC50 at 4 days
1,COc1cccc(NC(C(=O)c2c[nH]c3ccccc23)c2ccccc2F)c1 (stereo not drawn) [CPD-144],20 µM
2,COc1cccc(NC(C(=O)c2c[nH]c3c(F)cccc23)c2ccc(OC)nc2)c1 (stereo not drawn) [CPD-155],15 µM
3,CCOc1ccc(NC(C(=O)c2c[nH]c3ccccc23)c2ccccc2)cc1OC (stereo not drawn) [CPD-173],69 µM
4,COc1cccc(NC(C(=O)c2c[nH]c3ncccc23)c2ccccc2)c1 (stereo not drawn) [CPD-194],61 µM
5,COc1cccc(NC(C(=O)c2cn(S(=O)(=O)C3CCOC3)c3ccccc23)c2ccccc2)c1 (stereo not drawn) [CPD-208],> 102 µM
6,COc1cccc(NC(C(=O)c2cn(S(C)(=O)=O)c3ccc(F)cc23)c2ccccc2)c1 (stereo not drawn) [CPD-212],> 110 µM
7,COc1cccc(NC(C(=O)c2c[nH]c3ccc(CO)cc23)c2ccccc2)c1 (stereo not drawn) [CPD-219],86 µM
8,COc1cccc(NC(C(=O)c2c[nH]c3nc(C)ccc23)c2ccccc2)c1 (stereo not drawn) [CPD-225],> 134 µM
9,COc1cccc(NC(C(=O)c2c[nH]c3ncc(F)cc23)c2ccccc2)c1 (stereo not drawn) [CPD-227],> 124 µM
10,COc1cccc(NC(C(=O)c2c[nH]c3cc(N4CCOCC4)ccc23)c2ccccc2)c1 (stereo not drawn) [CPD-237],> 113 µM
11,CCOc1ncc(NC(C(=O)c2c[nH]c3ccccc23)c2ccccc2)cc1OC (stereo not drawn) [CPD-258],72 µM
12,COc1cccc(NC(C(=O)c2nn(C)c3ccc(F)cc23)c2ccccc2)c1 (stereo not drawn) [CPD-270],> 128 µM
13,COc1cccc(NC(C(=O)c2c[nH]c3cc(F)ccc23)c2cnc(OC)cn2)c1 (stereo not drawn) [CPD-297],22 µM
14,COc1cc(CO)cc(NC(C(=O)c2cn(C)c3ccccc23)c2ccccc2)c1 (stereo not drawn) [CPD-307],> 124 µM
15,COc1cc(NC(C(=O)c2c[nH]c3c(C)cccc23)c2ccc(F)cc2)cc(OC)c1 (stereo not drawn) [CPD-341],12 µM
16,COc1cc(NC(C(=O)c2c[nH]c3ccccc23)c2cccnc2)cc(OCCO)c1 (stereo not drawn) [CPD-343],> 119 µM
17,COc1cc(CO)cc(NC(C(=O)c2c[nH]c3cc(F)ccc23)c2cccnc2)c1 (stereo not drawn) [CPD-344],94 µM
18,COc1cc(NC(C(=O)c2c[nH]c3ccccc23)c2ccccc2)c(F)c(OC)c1 (stereo not drawn) [CPD-345],106 µM
19,COc1cc(NC(C(=O)c2c[nH]c3ccc(F)cc23)c2ccccc2)cc(OCCO)c1 (stereo not drawn) [CPD-355],44 µM
20,COc1cc(O)cc(NC(C(=O)c2c[nH]c3ccccc23)c2ccccc2)c1 (stereo not drawn) [CPD-359],52 µM
21,COc1cc(NC(C(=O)c2c[nH]c3c(CCN(C)C)cccc23)c2ccccc2)cc(OC)c1 (stereo not drawn) [CPD-365],12 µM
22,O=C(c1c[nH]c2ccccc12)C(Nc1cccc(O)c1)c1ccccc1 (stereo not drawn) [CPD-366],78 µM
23,CCOC(=O)CCCOc1cc(NC(C(=O)c2c[nH]c3ccccc23)c2ccccc2)cc(OC)c1 (stereo not drawn) [CPD-367],> 103 µM
24,COc1cc(NC(C(=O)c2c[nH]c3ccccc23)c2ccc(C)cc2)cc(OCCO)c1 (stereo not drawn) [CPD-369],11 µM
25,COc1cc(NC(C(=O)c2c[nH]c3ccc(CCO)cc23)c2ccccc2)cc(OC)c1 (stereo not drawn) [CPD-370],66 µM
26,COc1cc(NC(C(=O)c2c[nH]c3c(CCO)cccc23)c2ccc(F)cc2)cc(OC)c1 (stereo not drawn) [CPD-371],12 µM

# System: DENV-4 strain Dak HD 34 460
# Test: Antiviral activity against DENV-4 in Vero-B cells (viral RNA load by RT-qPCR)
# Type: cell-based, Dengue virus
# Conditions: Dengue virus, DENV4, Vero B
row,Structure (SMILES),EC50
1,COc1cccc(NC(C(=O)c2c[nH]c3ncccc23)c2ccccc2)c1 (stereo not drawn) [CPD-194],18.7 µM
2,COc1cccc(NC(C(=O)c2cn(S(=O)(=O)C3CCOC3)c3ccccc23)c2ccccc2)c1 (stereo not drawn) [CPD-208],6.95 µM
3,COc1cccc(NC(C(=O)c2cn(S(C)(=O)=O)c3ccc(F)cc23)c2ccccc2)c1 (stereo not drawn) [CPD-212],2.64 µM
4,COc1cccc(NC(C(=O)c2c[nH]c3nc(C)ccc23)c2ccccc2)c1 (stereo not drawn) [CPD-225],1.16 µM
5,COc1cccc(NC(C(=O)c2c[nH]c3ncc(F)cc23)c2ccccc2)c1 (stereo not drawn) [CPD-227],7.45 µM
6,COc1cccc(NC(C(=O)c2c[nH]c3cc(N4CCOCC4)ccc23)c2ccccc2)c1 (stereo not drawn) [CPD-237],8.31 µM
7,CCOc1ncc(NC(C(=O)c2c[nH]c3ccccc23)c2ccccc2)cc1OC (stereo not drawn) [CPD-258],9.42 µM
8,COc1cccc(NC(C(=O)c2c[nH]c3cc(F)ccc23)c2cnc(OC)cn2)c1 (stereo not drawn) [CPD-297],6.68 µM
9,COc1cc(CO)cc(NC(C(=O)c2cn(C)c3ccccc23)c2ccccc2)c1 (stereo not drawn) [CPD-307],11.5 µM
10,COc1cc(NC(C(=O)c2c[nH]c3c(C)cccc23)c2ccc(F)cc2)cc(OC)c1 (stereo not drawn) [CPD-341],3.36 µM
11,COc1cc(CO)cc(NC(C(=O)c2c[nH]c3cc(F)ccc23)c2cccnc2)c1 (stereo not drawn) [CPD-344],25.9 µM
12,COc1cc(NC(C(=O)c2c[nH]c3ccccc23)c2ccccc2)c(F)c(OC)c1 (stereo not drawn) [CPD-345],2.94 µM
13,COc1cc(NC(C(=O)c2c[nH]c3ccc(F)cc23)c2ccccc2)cc(OCCO)c1 (stereo not drawn) [CPD-355],6.17 µM
14,COc1cc(O)cc(NC(C(=O)c2c[nH]c3ccccc23)c2ccccc2)c1 (stereo not drawn) [CPD-359],5.48 µM

# System: DENV-3 strain H87 prototype
# Test: Antiviral activity against DENV-3 in Vero-B cells (viral RNA load by RT-qPCR)
# Type: cell-based, Dengue virus
# Conditions: Dengue virus, DENV3, Vero B
row,Structure (SMILES),EC50
1,COc1cccc(NC(C(=O)c2c[nH]c3ccccc23)c2ccccc2F)c1 (stereo not drawn) [CPD-144],3.08 µM
2,COc1cccc(NC(C(=O)c2cn(S(=O)(=O)C3CCOC3)c3ccccc23)c2ccccc2)c1 (stereo not drawn) [CPD-208],6.65 µM
3,COc1cccc(NC(C(=O)c2cn(S(C)(=O)=O)c3ccc(F)cc23)c2ccccc2)c1 (stereo not drawn) [CPD-212],5.9 µM
4,COc1cccc(NC(C(=O)c2c[nH]c3ccc(CO)cc23)c2ccccc2)c1 (stereo not drawn) [CPD-219],22.1 µM
5,COc1cccc(NC(C(=O)c2c[nH]c3nc(C)ccc23)c2ccccc2)c1 (stereo not drawn) [CPD-225],2.99 µM
6,COc1cccc(NC(C(=O)c2c[nH]c3ncc(F)cc23)c2ccccc2)c1 (stereo not drawn) [CPD-227],2.91 µM
7,COc1cccc(NC(C(=O)c2nn(C)c3ccc(F)cc23)c2ccccc2)c1 (stereo not drawn) [CPD-270],1.87 µM
8,COc1cccc(NC(C(=O)c2c[nH]c3cc(F)ccc23)c2cnc(OC)cn2)c1 (stereo not drawn) [CPD-297],0.57 µM
9,COc1cc(NC(C(=O)c2c[nH]c3c(C)cccc23)c2ccc(F)cc2)cc(OC)c1 (stereo not drawn) [CPD-341],0.05 µM
10,COc1cc(NC(C(=O)c2c[nH]c3ccccc23)c2cccnc2)cc(OCCO)c1 (stereo not drawn) [CPD-343],3.11 µM
11,COc1cc(CO)cc(NC(C(=O)c2c[nH]c3cc(F)ccc23)c2cccnc2)c1 (stereo not drawn) [CPD-344],0.79 µM
12,COc1cc(NC(C(=O)c2c[nH]c3ccccc23)c2ccccc2)c(F)c(OC)c1 (stereo not drawn) [CPD-345],1.73 µM
13,COc1cc(NC(C(=O)c2c[nH]c3ccc(F)cc23)c2ccccc2)cc(OCCO)c1 (stereo not drawn) [CPD-355],0.3 µM

# System: DENV-2 NGC
# Test: Antiviral activity against DENV-2 NGC in Vero-B cells (viral RNA load by RT-qPCR)
# Type: cell-based, Dengue virus
# Conditions: Dengue virus, DENV2, Vero B, DENV-2 in Vero-B cells; inhibition of viral RNA replication by 50% (Table 3)
row,Structure (SMILES),EC50
1,COc1cccc(NC(C(=O)c2c[nH]c3ccccc23)c2ccccc2F)c1 (stereo not drawn) [CPD-144],0.06 µM
2,COc1cccc(NC(C(=O)c2c[nH]c3c(F)cccc23)c2ccc(OC)nc2)c1 (stereo not drawn) [CPD-155],0.08 µM
3,CCOc1ccc(NC(C(=O)c2c[nH]c3ccccc23)c2ccccc2)cc1OC (stereo not drawn) [CPD-173],0.02 µM
4,COc1cccc(NC(C(=O)c2c[nH]c3ncccc23)c2ccccc2)c1 (stereo not drawn) [CPD-194],0.94 µM
5,COc1cccc(NC(C(=O)c2cn(S(=O)(=O)C3CCOC3)c3ccccc23)c2ccccc2)c1 (stereo not drawn) [CPD-208],0.37 µM
6,COc1cccc(NC(C(=O)c2cn(S(C)(=O)=O)c3ccc(F)cc23)c2ccccc2)c1 (stereo not drawn) [CPD-212],0.42 µM
7,COc1cccc(NC(C(=O)c2c[nH]c3ccc(CO)cc23)c2ccccc2)c1 (stereo not drawn) [CPD-219],0.52 µM
8,COc1cccc(NC(C(=O)c2c[nH]c3nc(C)ccc23)c2ccccc2)c1 (stereo not drawn) [CPD-225],0.38 µM
9,COc1cccc(NC(C(=O)c2c[nH]c3ncc(F)cc23)c2ccccc2)c1 (stereo not drawn) [CPD-227],0.27 µM
10,COc1cccc(NC(C(=O)c2c[nH]c3cc(N4CCOCC4)ccc23)c2ccccc2)c1 (stereo not drawn) [CPD-237],1.35 µM
11,CCOc1ncc(NC(C(=O)c2c[nH]c3ccccc23)c2ccccc2)cc1OC (stereo not drawn) [CPD-258],1.47 µM
12,COc1cccc(NC(C(=O)c2nn(C)c3ccc(F)cc23)c2ccccc2)c1 (stereo not drawn) [CPD-270],0.13 µM
13,COc1cccc(NC(C(=O)c2c[nH]c3cc(F)ccc23)c2cnc(OC)cn2)c1 (stereo not drawn) [CPD-297],0.03 µM
14,COc1cc(CO)cc(NC(C(=O)c2cn(C)c3ccccc23)c2ccccc2)c1 (stereo not drawn) [CPD-307],0.18 µM
15,COc1cc(NC(C(=O)c2c[nH]c3c(C)cccc23)c2ccc(F)cc2)cc(OC)c1 (stereo not drawn) [CPD-341],0.002 µM
16,COc1cc(NC(C(=O)c2c[nH]c3ccccc23)c2cccnc2)cc(OCCO)c1 (stereo not drawn) [CPD-343],0.19 µM
17,COc1cc(CO)cc(NC(C(=O)c2c[nH]c3cc(F)ccc23)c2cccnc2)c1 (stereo not drawn) [CPD-344],0.09 µM
18,COc1cc(NC(C(=O)c2c[nH]c3ccccc23)c2ccccc2)c(F)c(OC)c1 (stereo not drawn) [CPD-345],0.21 µM
19,COc1cc(NC(C(=O)c2c[nH]c3ccc(F)cc23)c2ccccc2)cc(OCCO)c1 (stereo not drawn) [CPD-355],0.03 µM
20,COc1cc(O)cc(NC(C(=O)c2c[nH]c3ccccc23)c2ccccc2)c1 (stereo not drawn) [CPD-359],0.1 µM
21,COc1cc(NC(C(=O)c2c[nH]c3c(CCN(C)C)cccc23)c2ccccc2)cc(OC)c1 (stereo not drawn) [CPD-365],2.03 µM
22,O=C(c1c[nH]c2ccccc12)C(Nc1cccc(O)c1)c1ccccc1 (stereo not drawn) [CPD-366],0.26 µM
23,CCOC(=O)CCCOc1cc(NC(C(=O)c2c[nH]c3ccccc23)c2ccccc2)cc(OC)c1 (stereo not drawn) [CPD-367],0.04 µM
24,COc1cc(NC(C(=O)c2c[nH]c3ccccc23)c2ccc(C)cc2)cc(OCCO)c1 (stereo not drawn) [CPD-369],0.01 µM
25,COc1cc(NC(C(=O)c2c[nH]c3ccc(CCO)cc23)c2ccccc2)cc(OC)c1 (stereo not drawn) [CPD-370],0.06 µM
26,COc1cc(NC(C(=O)c2c[nH]c3c(CCO)cccc23)c2ccc(F)cc2)cc(OC)c1 (stereo not drawn) [CPD-371],0.03 µM

# System: DENV-1 Djibouti strain D1/H/IMTSSA/98/606
# Test: Antiviral activity against DENV-1 in Vero-B cells (viral RNA load by RT-qPCR)
# Type: cell-based, Dengue virus
# Conditions: Dengue virus, DENV1, Vero B
row,Structure (SMILES),EC50
1,COc1cccc(NC(C(=O)c2c[nH]c3ccccc23)c2ccccc2F)c1 (stereo not drawn) [CPD-144],2.89 µM
2,COc1cccc(NC(C(=O)c2c[nH]c3c(F)cccc23)c2ccc(OC)nc2)c1 (stereo not drawn) [CPD-155],2.94 µM
3,CCOc1ccc(NC(C(=O)c2c[nH]c3ccccc23)c2ccccc2)cc1OC (stereo not drawn) [CPD-173],30.7 µM
4,COc1cccc(NC(C(=O)c2nn(C)c3ccc(F)cc23)c2ccccc2)c1 (stereo not drawn) [CPD-270],1.57 µM
5,COc1cc(CO)cc(NC(C(=O)c2cn(C)c3ccccc23)c2ccccc2)c1 (stereo not drawn) [CPD-307],2.43 µM
